Results taken from patent US8444972B2, “Antitumor antibodies, proteins, and uses thereof” (University of Massachusetts, priority 1999, dated 2013).

Tested on: E710.2.3
Test: Homotypic aggregation assay

In the case of Paraformaldehyde, the “HOMOTYPIC ADHESION induced by DMF10.62.3 in presence of chemical” value is reported as “inhibited”.
